In the NIST ThermoML archive (doi:10.1016/j.jct.2007.11.002):

Experiment: xn = mol fraction of the nth substance listed
Settings: 101 kPa, Liquid; for viscosity: Capillary tube (Ostwald / Ubbelohde) method

CN1CCOCC1 [N-methylmorpholine] + C1CCCCC1
Settings	mass density, 298.15 K [kg/m3]	mass density, 303.15 K [kg/m3]	viscosity, 298.15 K [mPa·s]	viscosity, 303.15 K [mPa·s]
x2 = 0.0453	907.59	902.83	0.868	0.854
x2 = 0.1276	895.48	890.66	0.85	0.838
x2 = 0.1689	889.43	884.59	0.84	0.828
x2 = 0.2217	881.74	876.96	0.83	0.814
x2 = 0.2763	873.94	869.13	0.824	0.804
x2 = 0.3217	867.42	862.66	0.821	0.797
x2 = 0.3873	857.99	853.23	0.819	0.791
x2 = 0.4326	851.46	846.82	0.819	0.786
x2 = 0.4833	844.29	839.67	0.821	0.784
x2 = 0.5218	838.78	834.2	0.824	0.784
x2 = 0.5844	829.95	825.42	–	0.785
x2 = 0.5943	–	–	0.829	–
x2 = 0.6328	823.16	818.66	–	0.786
x2 = 0.6341	–	–	0.835	–
x2 = 0.6877	–	–	0.842	–
x2 = 0.6911	815.03	810.51	–	0.789
x2 = 0.7129	–	–	0.847	–
x2 = 0.7428	807.87	803.38	–	0.79
x2 = 0.7648	–	–	0.855	–
x2 = 0.7895	–	–	0.861	–
x2 = 0.7944	800.77	796.31	–	0.794
x2 = 0.8392	794.64	790.27	–	0.797
x2 = 0.8444	–	–	0.868	–
x2 = 0.8643	791.35	786.94	–	0.797
x2 = 0.8873	–	–	0.875	–
x2 = 0.9033	786.15	781.75	–	0.801
x2 = 0.9348	–	–	0.889	–
x2 = 0.9532	779.63	775.19	–	0.805
x2 = 0.9741	–	–	0.898	–
x2 = 0.9823	775.75	771.51	–	0.805
